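Exposure lasted 48 hours, with cells grown in 96-well plates and compounds tested at five concentrations. The concentration for 50% growth inhibition is given as GI50.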 Calls of active or inactive are those of the source. Rule as the data show it: active = GI50 up to about 1.1 µM and inactive = higher.
Columns and labels:
Experiment in all cases: NCI anticancer screen, dose series, 48 h
786-0 = test system: 786-0
A498 = test system: A498
A549 = test system: A549
ACHN = test system: ACHN
BT-549 = test system: BT-549
CAKI-1 = test system: CAKI-1
CCRF-CEM = test system: CCRF-CEM
COLO 205 = test system: COLO 205
DU-145 = test system: DU-145
EKVX = test system: EKVX
HCC 2998 = test system: HCC 2998
HCT-116 = test system: HCT-116
HCT-15 = test system: HCT-15
HL-60 = test system: HL-60
HOP-62 = test system: HOP-62
HOP-92 = test system: HOP-92
HT-29 = test system: HT-29
Hs-578T = test system: Hs-578T
IGROV-1 = test system: IGROV-1
K562 = test system: K562
KM12 = test system: KM12
LOX IMVI = test system: LOX IMVI
M14 = test system: M14
MCF7 = test system: MCF7
MDA-MB-231 = test system: MDA-MB-231
MDA-MB-435 = test system: MDA-MB-435
MDA-N = test system: MDA-N
MOLT-4 = test system: MOLT-4
Malme-3M = test system: Malme-3M
NCI-H226 = test system: NCI-H226
NCI-H23 = test system: NCI-H23
NCI-H460 = test system: NCI-H460
NCI-H522 = test system: NCI-H522
NCI/ADR-RES = test system: NCI/ADR-RES
OVCAR-3 = test system: OVCAR-3
OVCAR-4 = test system: OVCAR-4
OVCAR-5 = test system: OVCAR-5
OVCAR-8 = test system: OVCAR-8
PC-3 = test system: PC-3
RPMI-8226 = test system: RPMI-8226
RXF 393 = test system: RXF 393
SF-268 = test system: SF-268
SF-295 = test system: SF-295
SF-539 = test system: SF-539
SK-MEL-28 = test system: SK-MEL-28
SK-MEL-2 = test system: SK-MEL-2
SK-MEL-5 = test system: SK-MEL-5
SK-OV-3 = test system: SK-OV-3
SN12C = test system: SN12C
SNB-19 = test system: SNB-19
SNB-75 = test system: SNB-75
SR = test system: SR
SW-620 = test system: SW-620
T47D = test system: T47D
TK-10 = test system: TK-10
U-251 = test system: U-251
UACC-257 = test system: UACC-257
UACC-62 = test system: UACC-62
UO-31 = test system: UO-31

## CC(CSc1nc2c(c(=N)n1-c1ccccc1)c(=S)n(-c1ccccc1)c(=S)n2-c1ccccc1)CN(C)C (stereo unspecified)
786-0
  GI50: 1.15 µM (inactive)
A498
  GI50: 2.8 µM (inactive)
A549
  GI50: 1.82 µM (inactive)
ACHN
  GI50: 1.76 µM (inactive)
BT-549
  GI50: 1.78 µM (inactive)
CAKI-1
  GI50: 1.61 µM (inactive)
CCRF-CEM
  GI50: 0.289 µM (active)
COLO 205
  GI50: 1.83 µM (inactive)
DU-145
  GI50: 1.66 µM (inactive)
EKVX
  GI50: 1.66 µM (inactive)
HCC 2998
  GI50: 1.32 µM (inactive)
HCT-116
  GI50: 1.67 µM (inactive)
HCT-15
  GI50: 1.55 µM
HL-60
  GI50: 0.615 µM (active)
HOP-62
  GI50: 1.88 µM (inactive)
HOP-92
  GI50: 1.56 µM (inactive)
HT-29
  GI50: 1.95 µM (inactive)
Hs-578T
  GI50: 2.5 µM (inactive)
IGROV-1
  GI50: 1.4 µM (inactive)
K562
  GI50: 1.07 µM (active)
KM12
  GI50: 2.25 µM (inactive)
LOX IMVI
  GI50: 1.05 µM (active)
M14
  GI50: 1.86 µM (inactive)
MCF7
  GI50: 0.313 µM (active)
MDA-MB-231
  GI50: 1.87 µM (inactive)
MDA-MB-435
  GI50: 1.72 µM (inactive)
MDA-N
  GI50: 1.91 µM (inactive)
MOLT-4
  GI50: 0.931 µM (active)
Malme-3M
  GI50: 1.71 µM (inactive)
NCI-H226
  GI50: 6.38 µM (inactive)
NCI-H23
  GI50: 2.2 µM (inactive)
NCI-H460
  GI50: 1.97 µM (inactive)
NCI-H522
  GI50: 1.11 µM (active)
NCI/ADR-RES
  GI50: 3.08 µM (inactive)
OVCAR-3
  GI50: 1.71 µM (inactive)
OVCAR-4
  GI50: 1.76 µM (inactive)
OVCAR-5
  GI50: 13.6 µM (inactive)
OVCAR-8
  GI50: 1.6 µM (inactive)
PC-3
  GI50: 1.87 µM (inactive)
RPMI-8226
  GI50: 0.335 µM (active)
RXF 393
  GI50: 1.59 µM (inactive)
SF-268
  GI50: 1.71 µM (inactive)
SF-295
  GI50: 6.22 µM (inactive)
SF-539
  GI50: 3.05 µM (inactive)
SK-MEL-28
  GI50: 2.12 µM (inactive)
SK-MEL-2
  GI50: 2.45 µM (inactive)
SK-MEL-5
  GI50: 2.05 µM (inactive)
SK-OV-3
  GI50: 4.06 µM (inactive)
SN12C
  GI50: 1.81 µM (inactive)
SNB-19
  GI50: 4.65 µM (inactive)
SNB-75
  GI50: 1.78 µM (inactive)
SR
  GI50: 0.558 µM (active)
SW-620
  GI50: 1.79 µM (inactive)
T47D
  GI50: 2.67 µM (inactive)
TK-10
  GI50: 1.69 µM (inactive)
U-251
  GI50: 1.82 µM (inactive)
UACC-257
  GI50: 1.79 µM (inactive)
UACC-62
  GI50: 1.7 µM (inactive)

## CC1=C(Nc2c(C)cc(O)cc2O)C(=O)C=c2oc3c(c21)C(C)=C(Nc1c(C)cc(O)cc1O)C(=O)C=3
786-0
  GI50: 54.1 µM (inactive)
A498
  GI50: > 100 µM (inactive)
A549
  GI50: 38.5 µM (inactive)
ACHN
  GI50: > 100 µM (inactive)
BT-549
  GI50: 32.9 µM (inactive)
CAKI-1
  GI50: > 100 µM (inactive)
COLO 205
  GI50: 20.8 µM (inactive)
DU-145
  GI50: 54.3 µM (inactive)
EKVX
  GI50: 47.5 µM (inactive)
HCC 2998
  GI50: 23.2 µM (inactive)
HCT-116
  GI50: 26.5 µM (inactive)
HCT-15
  GI50: 46.6 µM
HOP-62
  GI50: 32.8 µM (inactive)
HOP-92
  GI50: > 100 µM (inactive)
HT-29
  GI50: 28 µM (inactive)
Hs-578T
  GI50: 32 µM (inactive)
IGROV-1
  GI50: 30.1 µM (inactive)
K562
  GI50: 34 µM (inactive)
KM12
  GI50: 28.9 µM (inactive)
M14
  GI50: 28.8 µM (inactive)
MCF7
  GI50: 26.5 µM (inactive)
MDA-MB-231
  GI50: 36.6 µM (inactive)
MDA-MB-435
  GI50: 15.9 µM (inactive)
MDA-N
  GI50: 18.6 µM (inactive)
MOLT-4
  GI50: 27.4 µM (inactive)
Malme-3M
  GI50: 21.9 µM (inactive)
NCI-H226
  GI50: 43.9 µM (inactive)
NCI-H23
  GI50: 20.3 µM (inactive)
NCI-H460
  GI50: 30.3 µM (inactive)
NCI-H522
  GI50: 20.1 µM (inactive)
NCI/ADR-RES
  GI50: > 100 µM (inactive)
OVCAR-3
  GI50: 15.6 µM (inactive)
OVCAR-4
  GI50: 57.4 µM (inactive)
OVCAR-5
  GI50: 47.5 µM (inactive)
OVCAR-8
  GI50: 38 µM (inactive)
PC-3
  GI50: 24.2 µM (inactive)
RPMI-8226
  GI50: 28.8 µM (inactive)
RXF 393
  GI50: > 100 µM (inactive)
SF-268
  GI50: 45.5 µM (inactive)
SF-295
  GI50: 24.4 µM (inactive)
SF-539
  GI50: 19.5 µM (inactive)
SK-MEL-28
  GI50: 52.5 µM (inactive)
SK-MEL-2
  GI50: 34.1 µM (inactive)
SK-MEL-5
  GI50: 17.2 µM (inactive)
SK-OV-3
  GI50: 45.7 µM (inactive)
SN12C
  GI50: 30.4 µM (inactive)
SNB-19
  GI50: 35.8 µM (inactive)
SNB-75
  GI50: 25.6 µM (inactive)
SR
  GI50: 0.0313 µM (active)
SW-620
  GI50: 35.5 µM (inactive)
T47D
  GI50: 52.4 µM (inactive)
TK-10
  GI50: 94.8 µM (inactive)
U-251
  GI50: 37.8 µM (inactive)
UACC-257
  GI50: 29.8 µM (inactive)
UACC-62
  GI50: 37.2 µM (inactive)
UO-31
  GI50: 50.8 µM (inactive)

## COC(=O)/C(=N/NC(N)=O)C(C(=O)C(=O)Nc1ccc(C)cc1)c1nc2ccc(C(=O)c3ccccc3)cc2nc1O (stereo unspecified)
786-0
  GI50: > 100 µM (inactive)
A498
  GI50: 18.9 µM (inactive)
A549
  GI50: > 100 µM (inactive)
ACHN
  GI50: > 100 µM (inactive)
BT-549
  GI50: > 100 µM (inactive)
CAKI-1
  GI50: 88.9 µM (inactive)
CCRF-CEM
  GI50: 49 µM (inactive)
COLO 205
  GI50: > 100 µM (inactive)
DU-145
  GI50: > 100 µM (inactive)
EKVX
  GI50: 33.4 µM (inactive)
HCC 2998
  GI50: 34.2 µM (inactive)
HCT-116
  GI50: > 100 µM (inactive)
HCT-15
  GI50: > 100 µM
HL-60
  GI50: 67.9 µM (inactive)
HOP-62
  GI50: > 100 µM (inactive)
HOP-92
  GI50: 30.3 µM (inactive)
HT-29
  GI50: 80.9 µM (inactive)
Hs-578T
  GI50: 67 µM (inactive)
IGROV-1
  GI50: 23.7 µM (inactive)
KM12
  GI50: 66.7 µM (inactive)
LOX IMVI
  GI50: > 100 µM (inactive)
M14
  GI50: > 100 µM (inactive)
MCF7
  GI50: 91.4 µM (inactive)
MDA-MB-231
  GI50: > 100 µM (inactive)
MDA-MB-435
  GI50: 37 µM (inactive)
MDA-N
  GI50: 64.1 µM (inactive)
MOLT-4
  GI50: 50.4 µM (inactive)
Malme-3M
  GI50: > 100 µM (inactive)
NCI-H226
  GI50: 40.9 µM (inactive)
NCI-H23
  GI50: > 100 µM (inactive)
NCI-H460
  GI50: > 100 µM (inactive)
NCI-H522
  GI50: 50.5 µM (inactive)
NCI/ADR-RES
  GI50: 39.3 µM (inactive)
OVCAR-3
  GI50: > 100 µM (inactive)
OVCAR-4
  GI50: > 100 µM (inactive)
OVCAR-5
  GI50: > 100 µM (inactive)
OVCAR-8
  GI50: 75.2 µM (inactive)
PC-3
  GI50: > 100 µM (inactive)
RXF 393
  GI50: 61.9 µM (inactive)
SF-268
  GI50: > 100 µM (inactive)
SF-295
  GI50: > 100 µM (inactive)
SF-539
  GI50: 85.1 µM (inactive)
SK-MEL-28
  GI50: > 100 µM (inactive)
SK-MEL-2
  GI50: > 100 µM (inactive)
SK-MEL-5
  GI50: > 100 µM (inactive)
SK-OV-3
  GI50: > 100 µM (inactive)
SN12C
  GI50: > 100 µM (inactive)
SNB-19
  GI50: > 100 µM (inactive)
SNB-75
  GI50: 39.7 µM (inactive)
SR
  GI50: 1.53 µM (inactive)
SW-620
  GI50: > 100 µM (inactive)
T47D
  GI50: 41.9 µM (inactive)
TK-10
  GI50: > 100 µM (inactive)
U-251
  GI50: > 100 µM (inactive)
UACC-257
  GI50: > 100 µM (inactive)
UACC-62
  GI50: 51.4 µM (inactive)
UO-31
  GI50: 30.5 µM (inactive)

Source: ChEMBL document CHEMBL1201862, “PubChem BioAssay data set” (2004)
